Data reported in ChEMBL document CHEMBL5620358, “Proteolysis-targeting chimeras in biotherapeutics: Current trends and future applications” (Eur J Med Chem, 2023).
One block for each compound: values may come before it.

Assays:
[1] = Induction of AR degradation in castrated mouse model xenografted with human VCaP cells at 1 mg/kg; format: functional
[2] = Antiproliferative activity against human TNBC cells assessed as inhibition of cell growth; format: functional, Breast carcinoma cell
MCF7 = experiment: Cytotoxicity against human MCF7 cells assessed as inhibition of cell proliferation measured after 72 hrs by MTT assay; format: functional, cell-based; details: MCF7, 72 h
[3] = molecular target: T1, Protein cereblon/Cyclin-dependent kinase 9 (Homo sapiens) (UniProt P50750+Q96SW2); experiment: PROTAC activity at E3 ubiquitin ligase/CDK9 in human HCT-116 cells assessed as induction of CDK9 degradation at 20 uM measured after 6 hrs by western blot analysis; format: cell-based
[4] = molecular target: T1, Protein cereblon/Cyclin-dependent kinase 9 (Homo sapiens); experiment: PROTAC activity at E3 ubiquitin ligase/CDK9 in human MOLT-4 cells assessed as induction of CDK9 degradation at 250 nM by immunoblot analysis; format: cell-based
[5] = molecular target: Protein cereblon/Bromodomain-containing protein 9 (Homo sapiens, UniProt Q9H8M2+Q96SW2); experiment: PROTAC activity at CRBN/BRD9 (unknown origin) assessed as induction of BRD9 degradation; format: protein assay
[6] = molecular target: von Hippel-Lindau disease tumor suppressor/Haloalkane dehalogenase (Rhodococcus sp, UniProt P40337+P0A3G3); experiment: PROTAC activity at VHL/HaloTag7-GFP fusion protein (unknown origin) assessed as induction of fusion protein degradation
[7] = molecular target: von Hippel-Lindau disease tumor suppressor/Haloalkane dehalogenase (Rhodococcus sp) (UniProt P40337+P0A3G3); experiment: PROTAC activity at VHL/HaloTag7-GFP fusion protein (unknown origin) assessed as induction of fusion protein degradation relative to control
[8] = molecular target: Protein cereblon/Macrophage migration inhibitory factor (Homo sapiens, UniProt P14174+Q96SW2); experiment: PROTAC activity at E3 ubiquitin ligase/MIF in human A549 cells assessed as induction of MIF degradation; format: cell-based

Compound: N#Cc1ccc(O[C@H]2CC[C@H](NC(=O)c3ccc(N4CCC(CN5CCN(c6cc7c(cc6F)C(=O)N(C6CCC(=O)NC6=O)C7=O)CC5)CC4)nn3)CC2)cc1Cl (some centres undefined) [BAVDEGALUTAMIDE]
Activity [1]: 90%

Compound: Nc1c(C(=O)Nc2ccc(F)cc2)sc2nc(-c3cccs3)cc(C(F)(F)F)c12
inhibition (INH) [2]: 47.8%

Compound: Nc1cccc2c1C(=O)N(C1CCC(=O)NC1=O)C2=O (centres undefined) [POMALIDOMIDE]
IC50 (MCF7): 17000 nM

Compound: O=C1CCC(N2C(=O)c3cccc(NCCCCCCCC(=O)Nc4ccc(N5Cc6ccc(O)cc6OC5=O)cc4)c3C2=O)C(=O)N1 (centres undefined)
DC50 [8]: 100 nM

The remaining lines, values ahead:

Activity [3]: 65%
Compound: O=C1CCC(N2C(=O)c3cccc(OCCCCCOc4ccc(CC(=O)Nc5cc(C6CCC6)[nH]n5)cc4)c3C2=O)C(=O)N1 (centres undefined)

Activity [4]: 99%
Compound: CC(C)(C)c1cnc(CSc2cnc(NC(=O)C3CCN(CC(=O)NCCOCCOCCOCCNc4cccc5c4C(=O)N(C4CCC(=O)NC4=O)C5=O)CC3)s2)o1 (centres undefined)

DC50 [5]: 2.7 nM
Compound: COc1cc(-c2cn(C)c(=O)c(C)c2C)cc(OC)c1CN1CC[C@H](N2CCN(c3ccc(N[C@H]4CCC(=O)NC4=O)cc3F)CC2)C(F)(F)C1 [SENDEGOBRESIB]

DC50 [6]: 19 nM | Activity [7]: 90%
Compound: Cc1ncsc1-c1ccc(CNC(=O)[C@@H]2C[C@@H](O)CN2C(=O)[C@H](C(C)C)N2Cc3ccccc3C2=O)c(OCCOCCOCCOCCCCCCCl)c1
